{"source": "patent US20210278391A1", "about": "“COMPOSITIONS AND METHODS FOR TREATING CARDIOVASCULAR AND METABOLIC CONDITIONS” (The Regents of the University of California, priority 2017, published 2021)", "key": {"[1]": {"test_system": "BCKD", "assay": "BCKD activity in mouse cardiac tissue", "type": "in vivo", "settings": "BT2 vs vehicle", "method": "PP2Cm germ-line knockout (PP2Cm-KO) mice were generated as previously described (Lu et al. (2009), supra). PP2Cm KO mice were backcrossed for more than 8 generations into a C57BL/6 background. Wild type C57BL/6 mice and PP2Cm KO mice were housed at 22° C. with a 12-hour light, 12-hour dark cycle with free access to water and standard chow. Studies were performed with male mice. Human cohorts of dilated cardiomyopathy and controls were obtained from Columbia and Duke with Institutional Review Board approval. All animal procedures were carried out in accordance with the guidelines and protocols approved by the University of California at Los Angeles Institutional Animal Care and Use Committee (IACUC). Transaortic constriction (TAC) and cardiac echocardiography were performed as reported earlier 17 on mice from different genotypes between 14 and 16 weeks of age. […] Measurements of BCKD activity in mouse cardiac tissue and plasma BCKA/BCAA concentrations were performed as previously described (Tso et al. (2014), supra)."}, "[2]": {"assay": "Plasma BCAA/BCKA in ob/ob mice treated with BT2", "type": "in vivo, mouse", "settings": "BT2 40 mg/kg/day", "method": "(§1) Animals were euthanized using carbon dioxide asphyxiation followed by cervical dislocation and then dissected. Blood was harvested by cardiac puncture and centrifuged to isolate plasma which was stored at −80° C. Acidified citrate dextrose was used as an anticoagulant. Immediately after blood collection, heart, liver, kidneys, and both hind leg quadriceps muscles were removed and snap frozen in liquid nitrogen.\n(§2) The endogenous signal from blank plasma was subtracted from each point on the standard curve, and the data were plotted in GraphPad Prism. BCAA concentrations in treated samples were determined based on this standard curve."}, "[3]": {"assay": "Plasma BCAA/BCKA in DIO mice treated with BT2", "type": "in vivo, mouse", "settings": "BT2 40 mg/kg/day 8 weeks", "method": "as §1, §2"}, "[4]": {"test_system": "high fat diet (HFD)-induced obese (DIO) mice", "assay": "Glucose and insulin tolerance, plasma insulin in DIO mice treated with BT2", "type": "in vivo, mouse", "settings": "BT2 40 mg/kg/day 8 weeks", "method": "as §1\nMice were fasted for 6 hours. For insulin tolerance test, mice were injected (intraperitoneal) with insulin (0.75 U/kg body weight). For glucose tolerance test, mice were injected intraperitoneally with D-glucose (2 g/kg body weight). Experiments were performed between 14:00 and 16:00. Blood was drawn 0, 15, 30, 60, and 120 min after insulin or glucose administration. Blood glucose concentrations were measured through tail bleeding before and at the times indicated after injection. Blood glucose was measured using a portable glucometer (Johnson&Johnson). Plasma insulin and TNFα concentrations were measured by Milliplex Multiplex Immunoassay Kits MMHMAG-44K-14 (Merck Millipore, Darmstadt, Germany)."}, "[5]": {"test_system": "pressure-overloaded mouse heart", "assay": "TAC heart failure model with preexisting dysfunction, BT2 from 2 weeks post-TAC for 6 weeks, echocardiography and survival", "type": "in vivo", "method": "In mice, transverse aortic constriction (TAC) was performed as described (Lee et al. (2011) Circulation Research 109:1332-1341) in anesthetized (pentobarbital 60 mg/kg, IP) and ventilated mice (age 12-14 weeks) to induce hypertrophy and heart failure. After left anterolateral thoracotomy with blunt dissection through the intercostal muscles, aortic constriction was induced by ligating the transverse aorta around a 27½-gauge blunt needle using 6-0 silk suture. The needle was subsequently removed. Sham-operated mice underwent a similar surgical procedure without constriction of the aorta. All mice were maintained in the same environment with regular lab chow and water ad libitum. At the end of the experiments, animals were euthanized and the hearts and lungs were removed and weighed. Hearts were dissected and tissues were either immediately immersed into 4% buffered formaldehyde or quickly frozen in liquid nitrogen for further experiments."}, "[6]": {"test_system": "BCKD subunit E1α", "assay": "Western blot of phosphorylated E1α and BCKDK in heart post-TAC", "type": "in vivo, mouse", "method": "Proteins from heart tissue were harvested in buffer (50 mM HEPES [pH7.4], 150 mM NaCl, 1% NP-40, 1 mM EDTA, 1 mM EGTA, 1 mM glycerophosphate, 2.5 mM sodium pyrophosphate 1 mM Na3VO4, 20 mM NaF, 1 mM phenylmethylsulfonyl fluoride, 1 μg/mL of aprotinin, leupeptin, and pepstatin). Samples were separated on 4-12% Bis-Tris gels (Invitrogen), and transferred onto a nitrocellulose blot (Amersham). The blot was probed with the indicated primary antibodies. Protein signals were detected using HRP conjugated secondary antibodies and enhanced chemiluminescence (ECL) western blotting detection regents (Pierce). Rabbit polyclonal antisera against the E1α subunits of BCKD complex and phosphor-E1α antibodies were purchased from Abcam. PP2Cm antibody was generated in the lab."}, "[7]": {"assay": "Cardiac BCAA and BCKA assay post-TAC", "type": "in vivo, mouse", "settings": "post-TAC heart, BT2 6 weeks", "method": "BCAA and BCKA concentration in mouse heart tissue were determined by mass spectrometer using the following transition s: KIC 203.1 to 161.1 (retention time: 2.91 min); KIV 189.145 to 119.2 (retention time 2.84 min); KMV 203.065 to 174.2 (retention time 2.99 min); [^13C] KIV 194.109 to 120.1 (retention time: 2.84 min). Val 174.1/72.1 (retention time 3.2 min), Leu 188.1/86.1 (retention time 5.9 min), Ile 188.2/86.1 (retention time 5.7 min)."}, "[8]": {"test_system": "pressure-overloaded mouse heart", "assay": "Metabolic gene expression (quantitative PCR) in pressure-overloaded mouse heart", "type": "in vivo", "from_the_text": "Total RNA was extracted from heart tissues using Trizol Reagent (Invitrogen) according to the manufacturer's instructions. Total RNA was reverse-transcribed into the first-strand cDNA using ProtoScript® II Reverse Transcriptase (New England BioLabs). Then, cDNA transcripts were quantified by the CFX Real-Time PCR System (BioRad). 18sRNA were used for normalization except where indicated. PCR primer information is available upon request."}, "[9]": {"settings": "after 5 weeks post-TAC (3 weeks post-treatment), speckle tracking"}, "[10]": {"settings": "by 2 weeks of BT2 treatment (4 weeks post-TAC)"}}, "data": [{"smiles": "O=C(O)c1sc2cc(Cl)ccc2c1Cl", "note": "[BT2, 3,6-dichlorobenzo[b]thiophene-2-carboxylic acid]", "values": [{"measurement": "enhancement of cardiac BCKD activity", "setting": "[1]; PP2Cm-KO mice", "value": "~9", "unit": "fold"}, {"measurement": "enhancement of cardiac BCKD activity", "setting": "[1]; wild-type mice", "value": "~7", "unit": "fold"}, {"measurement": "magnitudes of reductions in plasma BCKA concentrations (vs BCAA)", "setting": "[2]", "value": "far more pronounced"}, {"measurement": "plasma BCAA levels", "setting": "[2]", "value": "significantly lowered"}, {"measurement": "plasma BCAA/BCKA levels", "setting": "[3]", "value": "lowers"}, {"measurement": "glucose tolerance", "setting": "[4]", "value": "improved"}, {"measurement": "hyperinsulinemia", "setting": "[4]", "value": "improved"}, {"measurement": "insulin sensitivity", "setting": "[4]", "value": "improved"}, {"measurement": "longitudinal early diastolic strain rate (SRe)", "setting": "[5]; 5 weeks post-TAC", "value": "remarkably improved"}, {"measurement": "chamber size (ΔLVIDs, ΔLV Vols)", "setting": "[5]; BT2 treated mouse hearts post-TAC", "value": "stable maintenance"}, {"measurement": "myocardial strain", "setting": "[5]; [9]", "value": "significantly improved"}, {"measurement": "myocardial strain rate", "setting": "[5]; [9]", "value": "significantly improved"}, {"measurement": "increase of EF from baseline (week 2)", "setting": "[5]; [10]", "value": "6.0±3.4", "unit": "points"}, {"measurement": "increase of FS from baseline (week 2)", "setting": "[5]; [10]", "value": "3.5±1.9", "unit": "points"}, {"measurement": "systolic dysfunction", "setting": "[5]; continuation of BT2 for additional 4 weeks", "value": "additional alleviations"}, {"measurement": "beneficial effect on SRe at radial circumferential planes", "setting": "[5]; during the treatment period", "value": "dispersity"}, {"measurement": "mouse survival", "setting": "[5]; from two weeks after treatment", "value": "improved"}, {"measurement": "systolic velocity and displacement in longitudinal and radial planes", "setting": "[5]; post-TAC", "value": "increase"}, {"measurement": "systolic function", "setting": "[5]; pressure-overloaded mouse heart, six weeks treatment", "value": "preserved"}, {"measurement": "pressure-overload-induced cardiac structural remodeling", "setting": "[5]; six weeks treatment", "value": "alleviated"}, {"measurement": "cardiac BCAA catabolic activities post-TAC", "setting": "[6]; intragastric, six weeks", "value": "enhanced"}, {"measurement": "BCKDK mediated E1α phosphorylation", "setting": "[6]; post-TAC heart, BT2 40 mg/kg/day 6 weeks vs vehicle", "value": "significantly reduced"}, {"measurement": "BCKDK protein expression", "setting": "[6]; post-TAC heart, BT2 vs vehicle", "value": "insignificant effect"}, {"measurement": "cardiac intra-tissue concentrations of BCAA and BCKA", "setting": "[7]", "value": "significant reduced"}, {"measurement": "PDK4 mRNA level", "setting": "[8]; BT2 treated mouse heart", "value": "trend of increase"}, {"measurement": "gene expression related to glucose transport", "setting": "[8]; BT2 treated mouse heart", "value": "unaffected"}, {"measurement": "mRNA level of CD36", "setting": "[8]; BT2 treated mouse heart post-TAC", "value": "moderately increased"}, {"measurement": "genes related to fatty acid β-oxidation (Acox1, Acadm)", "setting": "[8]; BT2 treated mouse hearts", "value": "mild increase"}, {"measurement": "mitochondrial DNA amount and PGC-1a mRNA levels", "setting": "[8]; vehicle vs BT2, post-sham or post-TAC", "value": "unaffected"}]}]}
